The values below are quoted from earlier work in US20030211945A1, “Natural herbicide compositions” (priority 2002, published 2003).

Molecules are shown by their SMILES. Read-outs that look alike come from different tables or passages of the source.

The data set concerns selected weeds.

As for `CC(=O)O` [acetic acid], the weed control entry runs as follows: (concentrations of acetic acid below about 5%) “variable results”; (high concentrations of acetic acid) “control selected weeds”.
